Measurements from patent US20060263351A1, “Methods and compositions for protection against thrombolysis associated reperfusion injury” (The General Hospital Corporation, priority 2002, published 2006).
“Also recorded” adds a separate entry of the source.

Tests used:
MMP-9 [1] = conditions: rats pre-treated intravenously with U0126 vs saline, 2 hr focal ischemia
From the text: In this investigation, rats were pre-treated with either saline or U0126 intravenously, then subjected to 2 hr focal ischemia. U0126 inhibits MEK, which is the upstream kinase that activates ERK.

MMP-9 [2] = experiment: tPA-induced MMP-9 production in wild-type murine embryonic fibroblasts (MEF-1); assay type: cell-based, mouse; conditions: wild-type MEF-1 cells
MMP-9 [3] = experiment: Gelatin zymography of brain after mechanical (filament) transient focal ischemia, MMP-9; assay type: in vivo, rat; conditions: 2 hr transient filament occlusion, reperfused 3, 6, or 24 hrs; tPA 10 mg/kg at onset of reperfusion; vs saline
Description: Similar findings were obtained in mechanical (filament) models of focal ischemia. Rats were subjected to transient occlusions for 2 hrs, then reperfused for 3, 6, or 24 hrs. Saline controls were compared with rats treated with 10 mg/kg of tPA at the onset of reperfusion.

MMP-2 [4] = experiment: Zymography of conditioned media, brain microvessel endothelial cells, MMP-2; assay type: cell-based; conditions: human brain endothelial cells
Description: (§1) Different doses of tPA were added to primary co-cultures of neurons/astrocytes from rat brain, or microvessel endothelial cells from human brain. Cytotoxicity assays of LDH release confirmed that these doses were not toxic, consistent with our previous published experience using tPA in vitro (Wang X, et al., Neurosci Lett 274:79-82, 1999). In addition, these doses are within range of plasma concentrations in patients treated with intravenous tPA (NINDS rt-PA Stroke Study Group, New Engl J Med 333:1581-1587, 1995).

MMP-9 [5] = experiment: Gelatin zymography of brain after embolic focal ischemia, MMP-9; assay type: in vivo, rat; conditions: tPA 10 mg/kg, 6 hrs post-ischemia; 12 hrs after embolic focal ischemia; vs saline
From the text: (§2) The use of BB-94 provided pharmacologic evidence that MMPs were involved in tPA-induced hemorrhage. The role of tPA in further increasing MMP levels was investigated (Sumii, T, E. H. Lo, Stroke 33:831-836, 2002; Aoki, T., et al., Stroke 33:2711-2717, 2002). At 12 hrs after embolic focal ischemia in rats, gelatin zymograms show an upregulation in MMP-9, as expected (FIG. 2A). […] This is an important point since MMP-9 is already produced in ischemic brain. The relevance of tPA-induced MMP-9 is dependent on how much more is released.

[6] = test system: primary co-cultures of neurons/astrocytes from rat brain; experiment: Cytotoxicity assay of LDH release, neuron/astrocyte co-cultures; assay type: cell-based; conditions: different doses of tPA
Description: as §1

[7] = test system: microvessel endothelial cells from human brain; experiment: Cytotoxicity assay of LDH release, brain endothelial cells; assay type: cell-based; conditions: different doses of tPA
Description: as §1

p38 MAP kinase = experiment: Western blot of phospho-p38 after tPA exposure in vitro; assay type: cell-based; conditions: 40 μg/ml tPA; rat cultures
From the text: (§3) The presence of MMP upregulation following activation of various signaling pathways after tPA binds to LRP, was investigated. In this investigation, MAP kinase was examined.

MMP-9 [8] = experiment: tPA-induced MMP-9 production in LRP knockout murine embryonic fibroblasts (PEA-13); assay type: cell-based, mouse; conditions: LRP knockout PEA-13 cells
MMP-9 [9] = experiment: Zymography of conditioned media, brain microvessel endothelial cells, MMP-9; assay type: cell-based, human
Description: as §1

MMP-2 [10] = experiment: Gelatin zymography of brain after embolic focal ischemia, MMP-2; assay type: in vivo, rat; conditions: tPA 10 mg/kg, 6 hrs post-ischemia; 12 hrs after embolic focal ischemia; vs saline
From the text: as §2

ERK = experiment: Western blot of phospho-ERK after tPA exposure in vitro; assay type: cell-based; conditions: 40 μg/ml tPA; rat cultures
From the text: as §3

MMP-9 [11] = experiment: Zymography of conditioned media, neuron/astrocyte co-cultures, MMP-9; assay type: cell-based, rat; conditions: 24 hr exposure to tPA
Description: as §1

Compound: N#CC(=C(/N)Sc1ccccc1N)/C(C#N)=C(\N)Sc1ccccc1N [U0126]
- ischemic upregulation of MMP-9 (MMP-9 [1]): can attenuate ischemic upregulation of MMP-9; also recorded: attenuated MMP-9 levels

Compound: tPA: tissue plasminogen activator (alteplase), thrombolytic agent
- MMP-9 production (MMP-9 [2]): induced MMP-9 production
- upregulation of MMP-9 in brain (gelatin zymograms) (MMP-9 [3]): clearly amplified the upregulation of MMP-9; also recorded: MMP-9 is amplified
- dose- and time-dependence of tPA-induced MMP-2 release (MMP-2 [4]): clear dose- and time-dependence
- MMP-9 levels in brain (gelatin zymograms) (MMP-9 [5]): more than doubled the production of MMP-9; also recorded: doubling of MMP-9
- cytotoxicity (LDH release) [6]: not toxic
- cytotoxicity (LDH release) [7]: not toxic
- activation of p38 MAP kinase pathway (phospho-p38) (p38 MAP kinase): activation; also recorded: rapidly activated
- MMP-9 response (MMP-9 [8]): no tPA-induced MMP-9 response; also recorded: no significant response
- secretion of MMP-9 (MMP-9 [9]; cerebral microvessel endothelial cells, 24 hr exposure to tPA): clearly induced secretion of MMP-9; also recorded: increased MMP-9 secretion
- dose- and time-dependence of tPA-induced MMP-9 release (MMP-9 [9]; human brain endothelial cells): clear dose- and time-dependence
- MMP-2 levels in brain (gelatin zymograms) (MMP-2 [10]): slightly increased but the difference did not reach statistical significance
- activation of ERK pathway (phospho-ERK) (ERK): activation of ERK; also recorded: rapidly activated
- secretion of MMP-9 (MMP-9 [11]): clearly induced secretion of MMP-9; also recorded: increased MMP-9 secretion
